For test [1], the system named is formation of regulatory T cells (Treg), Foxp3 expression. The experiment in a line: in vitro inhibition of Treg formation (2D). Format: cell-based, mouse. On the procedure:
For Treg formation experiments CD4+ T cells were purified from mouse spleen as mentioned above. Cells were then either activated on scaffolds or on anti-CD3e antibody ([…]) coated plates with the anti-CD28 antibody ([…]) supplemented medium. At the same time transforming growth factor-beta (TGF-beta; TGF-β) (15 ng/ml) was added to the media. After four days regulatory T cells were removed and stained with antibodies for flow cytometry analysis.
For Treg formation experiments CD4+ T cells were purified from mouse spleen as mentioned above. Cells were then either activated on scaffolds or on anti-CD3e antibody (8 μg/mL) coated plates with the anti-CD28 antibody (2 μg/mL) supplemented medium. At the same time TGF-β (15 ng/mL) was added to the media. After four days regulatory T cells were removed, fixed, permeabilized, and stained with antibodies for flow cytometric analysis of Foxp3 expression.

In a further test the target is TGF-beta receptor (TβR). To be noted: reported IC50 value (FIG. 13B); cited from earlier work.
The test system of test [2] is B16-F10-Ova melanoma tumors. The experiment in a line: melanoma model, cell-free scaffold implanted adjacent to tumor. Format: in vivo, mouse. To be noted: for T cell recruitment and tumor clearance compared to control scaffolds: chemokine in full scaffold. An excerpt: 2-5×10^5 (2-5×105) B16F10-OVA tumor cells were subcutaneously injected into right or both (in the contralateral tumor model) right and left flanks of C57BL/6J WT mice (6-8 weeks old). These melanoma-derived cells are transfected to express chicken ovalbumin peptide (OVA)34. Five days after tumor cell injection, scaffolds were surgically implanted subcutaneously into the same approximate region of the tumors in both flanks. For cell-loaded studies, ex vivo activated OT-I T cells were transferred either intravenously using retro-orbital injections (100 microliters [μL] per animal) or implantable scaffolds at the same day. Tumor size was assessed over time using a digital caliber until day 22 at which animals were sacrificed and the tumor, draining lymph nodes, and spleen were extracted. Tumor mass was measured using a digital balance before digesting the tumor tissue for flow cytometry or fixing it for tissue sectioning. Tumors were digested by incubating in collagenase and DNase I (50 micrograms/mL [μg/mL]) at 37° C. for 15 min. These enzymes were inactivated with ethylenediamine tetra-acetic acid (EDTA) (20 microliters/mL [μL/mL] of solution). […] Tissue sections were imaged by a fluorescence microscope (KEYENCE™ BZ-X800, Osaka, Japan).
Typically, mice received subcutaneous injections of B16-F10 cells to their right flank followed by the scaffold implantation adjacent to the tumor once it was palpable. Without any further treatment animal's health was monitored and were euthanized 17 days afterwards. […]
2-5×10^5 B16F10-OVA or B16F10 tumor cells were subcutaneously injected into right or both (in the contralateral tumor model) right and left flanks of wild-type C57BL/6J WT mice (6-8 weeks old, Jackson Lab). […] Tumor size was assessed over time using a digital caliper until day 22 at which animals were sacrificed and the tumor, draining lymph nodes, and spleen were extracted.
Tumor masses were measured using a digital balance before digesting the tumor tissue for flow cytometry or fixing it for tissue sectioning. […]

In the next test the test system is B16F10-OVA tumor cells. The experiment in a line: Transwell migration assay of tumor cells. It counts as cell-based, mouse. As to conditions: hydrogels containing CCL21; 8 h. On the procedure:
The migration assay to evaluate the role of chemokines on recruitment of T cells and melanoma cancer in the presence and absence of magnetic particles was performed using regular Transwell migration (Majedi, F. S. et al. Cytokine Secreting Microparticles Engineer the Fate and the Effector Functions of T-Cells. Adv. Mater. 30, 1703178 (2018)). […]
The migration assay to evaluate the role of chemokines on recruitment of T cells and melanoma cells in the presence and absence of chemokine-functionalized scaffolds was performed using regular Transwell migration as reported. […]

“Also recorded” adds a separate entry of the source.

Turning to `Cc1cccc(-c2nn3c(c2-c2ccnc4ccc(C(N)=O)cc24)CCC3)n1` [LY2157299, galunisertib], in test [1] (2D, aAPCs, soluble TGF-β in media, soluble TGFbi 10 uM or PLGA NPs with equivalent amount), the Treg formation suppressed result is listed as “about 40%”. In test [1] (at 1 nM concentrations, versus SB505124), the “potency in suppressing Treg formation” value was “about twice as potent as SB505124”.
Usually IC50 stands for the concentration at which inhibition is half-maximal. With `Cc1cccc(-c2[nH]c(C(C)(C)C)nc2-c2ccc3c(c2)OCO3)n1` [SB505124], the IC50 at TGF-beta receptor (TβR) is 0.129 µM.
With “CXCL12: stromal cell-derived factor 1 chemokine, used in the scaffold instead of CCL21”, the “T cell recruitment and tumor clearance compared to control scaffolds” value in test [2] is “successfully recruited T cells and helped clear tumors”.

B1: CCL21: chemokine (C-C motif) ligand 21, chemoattractant mixed into the scaffold (protein)
chain: SDGGGQDCCLKYSQKKIPYSIVRGYRKQEPSLGCPIPAILFSPRKHSKPELCANPEEGWVQNLMRRLDQPPAPGKQSPGCRKNRGTSKSGKKGKGSKGCKRTEQTQPSRG
On to B1, for which the “recruitment of tumor cells (chemotaxis)” value with B16F10-OVA tumor cells is recorded as “no significant effect”. In addition, in test [2] (CCL21 versus SDF-1a (CXCL12), otherwise identical scaffolds), the “recruitment of CD8+ T cells by chemokine released from scaffold” value was “favors recruitment of CD8+ T cells more than SDF-1α; also recorded: favored recruitment of CD8+ T cells and disfavored CD4+ T cells as compared with CXCL12”. In addition, in test [2], the “T cell recruitment and tumor clearance compared to control scaffolds” value is “successfully recruited T cells and helped clear tumors”.

Values taken from US20230250172A1, “IMPLANTABLE SCAFFOLDS AND USES THEREOF FOR IMMUNOTHERAPY AND OTHER USES” (The Regents of the University of California, priority 2019, published 2023).
